Measurements published in the NIST ThermoML archive (doi:10.1021/je400056z).

Assay: xn = mol fraction of the nth substance listed
Details: Liquid, Vibrating tube method

CCCCCCCCCCCCC [tridecane] + O=C=O
Details	mass density [kg/m3]
353.12 K, 20000 kPa, x2 = 0.0955	732.3
353.12 K, 20000 kPa, x2 = 0.2526	735.2
353.12 K, 21000 kPa, x2 = 0.0955	733.1
353.12 K, 21000 kPa, x2 = 0.2526	736
353.12 K, 22000 kPa, x2 = 0.0955	733.9
353.12 K, 22000 kPa, x2 = 0.2526	736.8
353.12 K, 23000 kPa, x2 = 0.0955	734.6
353.12 K, 23000 kPa, x2 = 0.2526	737.6
353.12 K, 24000 kPa, x2 = 0.0955	735.4
353.12 K, 24000 kPa, x2 = 0.2526	738.5
353.12 K, 25000 kPa, x2 = 0.0955	736.1
353.12 K, 25000 kPa, x2 = 0.2526	739.2
353.13 K, 17000 kPa, x2 = 0.8978	677.4
353.13 K, 18000 kPa, x2 = 0.8978	689.5
353.13 K, 20000 kPa, x2 = 0.8978	712.3
353.13 K, 21000 kPa, x2 = 0.8978	721.9
353.13 K, 22000 kPa, x2 = 0.8978	730.6
353.13 K, 23000 kPa, x2 = 0.8978	738.3
353.13 K, 24000 kPa, x2 = 0.8978	745.5
353.13 K, 25000 kPa, x2 = 0.8978	752.2
353.15 K, 8000 kPa, x2 = 0.5259	729.7
353.15 K, 9000 kPa, x2 = 0.5259	731.2
353.15 K, 10000 kPa, x2 = 0.5259	732.7
353.15 K, 11000 kPa, x2 = 0.5259	734.2
353.15 K, 12000 kPa, x2 = 0.5259	735.6
353.15 K, 13000 kPa, x2 = 0.5259	737
353.15 K, 14000 kPa, x2 = 0.5259	738.3
353.15 K, 15000 kPa, x2 = 0.5259	739.7
353.15 K, 16000 kPa, x2 = 0.5259	741
353.15 K, 17000 kPa, x2 = 0.5259	742.3
353.15 K, 18000 kPa, x2 = 0.5259	743.6
353.15 K, 19000 kPa, x2 = 0.5259	744.9
353.15 K, 20000 kPa, x2 = 0.5259	746
353.15 K, 21000 kPa, x2 = 0.5259	747.3
353.15 K, 22000 kPa, x2 = 0.5259	748.4
353.15 K, 23000 kPa, x2 = 0.5259	749.6
353.15 K, 24000 kPa, x2 = 0.5259	750.6
353.15 K, 25000 kPa, x2 = 0.5259	751.8
353.35 K, 16000 kPa, x2 = 0.7549	739.7
353.35 K, 17000 kPa, x2 = 0.7549	742.7
353.35 K, 18000 kPa, x2 = 0.7549	745.7
353.35 K, 19000 kPa, x2 = 0.7549	748.7
353.35 K, 20000 kPa, x2 = 0.7549	751.8
353.35 K, 21000 kPa, x2 = 0.7549	754.9
353.35 K, 22000 kPa, x2 = 0.7549	757.9
353.35 K, 23000 kPa, x2 = 0.7549	760.8
353.35 K, 24000 kPa, x2 = 0.7549	763.8
353.35 K, 25000 kPa, x2 = 0.7549	766.7
363.07 K, 19000 kPa, x2 = 0.8978	671.9
363.07 K, 20000 kPa, x2 = 0.8978	681
363.07 K, 21000 kPa, x2 = 0.8978	691.1
363.07 K, 22000 kPa, x2 = 0.8978	700.8
363.07 K, 23000 kPa, x2 = 0.8978	709.5
363.07 K, 24000 kPa, x2 = 0.8978	717.3
363.07 K, 25000 kPa, x2 = 0.8978	724.8
363.11 K, 9000 kPa, x2 = 0.0955	715.7
363.11 K, 9000 kPa, x2 = 0.2526	717.4
363.11 K, 10000 kPa, x2 = 0.0955	716.7
363.11 K, 10000 kPa, x2 = 0.2526	718.4
363.11 K, 10000 kPa, x2 = 0.5259	723
363.11 K, 11000 kPa, x2 = 0.0955	717.7
363.11 K, 11000 kPa, x2 = 0.2526	719.5
363.11 K, 11000 kPa, x2 = 0.5259	724.6
363.11 K, 12000 kPa, x2 = 0.0955	718.7
363.11 K, 12000 kPa, x2 = 0.2526	720.5
363.11 K, 12000 kPa, x2 = 0.5259	726.2
363.11 K, 13000 kPa, x2 = 0.0955	719.6
363.11 K, 13000 kPa, x2 = 0.2526	721.5
363.11 K, 13000 kPa, x2 = 0.5259	727.6
363.11 K, 14000 kPa, x2 = 0.0955	720.5
363.11 K, 14000 kPa, x2 = 0.2526	722.6
363.11 K, 14000 kPa, x2 = 0.5259	729.2
363.11 K, 15000 kPa, x2 = 0.0955	721.5
363.11 K, 15000 kPa, x2 = 0.2526	723.6
363.11 K, 15000 kPa, x2 = 0.5259	730.6
363.11 K, 16000 kPa, x2 = 0.0955	722.4
363.11 K, 16000 kPa, x2 = 0.2526	724.6
363.11 K, 16000 kPa, x2 = 0.5259	732
363.11 K, 17000 kPa, x2 = 0.0955	723.3
363.11 K, 17000 kPa, x2 = 0.2526	725.5
363.11 K, 17000 kPa, x2 = 0.5259	733.4
363.11 K, 18000 kPa, x2 = 0.0955	724.1
363.11 K, 18000 kPa, x2 = 0.2526	726.4
363.11 K, 18000 kPa, x2 = 0.5259	734.7
363.11 K, 19000 kPa, x2 = 0.0955	725
363.11 K, 19000 kPa, x2 = 0.2526	727.4
363.11 K, 19000 kPa, x2 = 0.5259	736
363.11 K, 20000 kPa, x2 = 0.0955	725.8
363.11 K, 20000 kPa, x2 = 0.2526	728.3
363.11 K, 20000 kPa, x2 = 0.5259	737.3
363.11 K, 21000 kPa, x2 = 0.0955	726.6
363.11 K, 21000 kPa, x2 = 0.2526	729.2
363.11 K, 21000 kPa, x2 = 0.5259	738.6
363.11 K, 22000 kPa, x2 = 0.0955	727.5
363.11 K, 22000 kPa, x2 = 0.2526	730.1
363.11 K, 22000 kPa, x2 = 0.5259	739.9
363.11 K, 23000 kPa, x2 = 0.0955	728.3
363.11 K, 23000 kPa, x2 = 0.2526	731
363.11 K, 23000 kPa, x2 = 0.5259	741.1
363.11 K, 24000 kPa, x2 = 0.0955	729.1
363.11 K, 24000 kPa, x2 = 0.2526	731.8
363.11 K, 24000 kPa, x2 = 0.5259	742.3
363.11 K, 25000 kPa, x2 = 0.0955	729.9
363.11 K, 25000 kPa, x2 = 0.2526	732.7
363.11 K, 25000 kPa, x2 = 0.5259	743.4
363.34 K, 16000 kPa, x2 = 0.7549	720.1
363.34 K, 17000 kPa, x2 = 0.7549	724.7
363.34 K, 18000 kPa, x2 = 0.7549	728.3
363.34 K, 19000 kPa, x2 = 0.7549	730.8
363.34 K, 20000 kPa, x2 = 0.7549	734.2
363.34 K, 21000 kPa, x2 = 0.7549	737.3
363.34 K, 22000 kPa, x2 = 0.7549	740.5
363.34 K, 23000 kPa, x2 = 0.7549	743.8
363.34 K, 24000 kPa, x2 = 0.7549	746.9
363.34 K, 25000 kPa, x2 = 0.7549	750.1
